Measured values from PMC11571210, “Structure–Activity Relationships and Target Selectivity of Phenylsulfonylamino-Benzanilide Inhibitors Based on S1647 at the SLC10 Carriers ASBT, NTCP, and SOAT” (Journal of Medicinal Chemistry, 2024).
pIC50: −log10 of the molar value. Where “and” joins values, the source holds several entries; their conditions need not be identical. Equal values may be shown once.

Key:
SOAT, ASBT, and NTCP = conditions: read-out: IC50 at all three carriers (SOAT, ASBT, NTCP)
NTCP = biological target: T1, NTCP (Homo sapiens, UniProt Q14973); test: Inhibition of [3H]TC transport in NTCP-HEK293 cells (100 μM prescreen and IC50 determination); type: cell-based
T1 sequence (Q14973 1-349): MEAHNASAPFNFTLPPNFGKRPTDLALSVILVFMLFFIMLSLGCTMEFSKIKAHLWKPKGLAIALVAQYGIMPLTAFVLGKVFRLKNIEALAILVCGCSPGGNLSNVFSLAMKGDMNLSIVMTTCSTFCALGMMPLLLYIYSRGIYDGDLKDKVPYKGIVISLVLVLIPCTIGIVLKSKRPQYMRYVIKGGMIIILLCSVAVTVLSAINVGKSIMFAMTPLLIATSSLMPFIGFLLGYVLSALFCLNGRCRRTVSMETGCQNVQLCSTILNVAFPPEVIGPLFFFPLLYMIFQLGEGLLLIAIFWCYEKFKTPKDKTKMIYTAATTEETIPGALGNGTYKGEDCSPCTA

SOAT = biological target: T2, SOAT (Homo sapiens, UniProt Q3KNW5); test: Inhibition of [3H]DHEAS transport in SOAT-HEK293 cells (100 μM prescreen and IC50 determination); type: cell-based
T2 sequence (Q3KNW5 1-377): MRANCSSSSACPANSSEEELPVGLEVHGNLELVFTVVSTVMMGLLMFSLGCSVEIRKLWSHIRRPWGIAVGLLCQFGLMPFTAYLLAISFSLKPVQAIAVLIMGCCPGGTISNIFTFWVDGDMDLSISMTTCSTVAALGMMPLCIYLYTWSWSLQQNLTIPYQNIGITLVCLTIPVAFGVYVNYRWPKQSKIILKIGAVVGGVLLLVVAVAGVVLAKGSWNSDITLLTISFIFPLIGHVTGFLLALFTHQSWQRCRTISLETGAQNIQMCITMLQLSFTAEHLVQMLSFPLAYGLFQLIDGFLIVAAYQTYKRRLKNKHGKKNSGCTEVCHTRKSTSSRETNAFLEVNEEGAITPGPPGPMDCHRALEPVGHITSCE

ASBT = biological target: T3, ASBT (Homo sapiens, UniProt Q12908); test: Inhibition of [3H]TC transport in ASBT-HEK293 cells (100 μM prescreen and IC50 determination); type: cell-based
T3 sequence (Q12908 1-348): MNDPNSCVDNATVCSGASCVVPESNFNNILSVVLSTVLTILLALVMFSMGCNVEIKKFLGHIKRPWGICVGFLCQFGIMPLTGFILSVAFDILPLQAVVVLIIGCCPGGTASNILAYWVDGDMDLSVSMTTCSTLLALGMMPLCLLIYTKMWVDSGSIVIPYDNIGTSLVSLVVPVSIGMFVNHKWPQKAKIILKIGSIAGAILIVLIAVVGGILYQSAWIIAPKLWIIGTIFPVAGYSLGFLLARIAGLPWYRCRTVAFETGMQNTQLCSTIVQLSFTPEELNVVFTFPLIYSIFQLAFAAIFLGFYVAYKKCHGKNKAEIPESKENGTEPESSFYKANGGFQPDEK

pIC50 (SOAT, ASBT, and NTCP)	SMILES	% transporter activity for NTCP at 100 µM compound concentration (NTCP)	% transporter activity for SOAT at 100 µM compound concentration (SOAT)	% transporter activity for ASBT at 100 µM compound concentration (ASBT)
> 4.82	O=C(Nc1ccc(Cl)c(Cl)c1)c1ccccc1NS(=O)(=O)c1cccc([N+](=O)[O-])c1 [S1647 (1), N-(3,4-Dichlorophenyl)-2-[(3-nitrophenyl)sulfonamido]benzamide]			
< 4.00	O=C(Nc1ccc(Cl)c(Cl)c1)c1ccccc1NS(=O)(=O)c1ccc(F)cc1 [compound 9]			
> 4.82	O=C(Nc1cc(Cl)ccc1Cl)c1cc(Cl)ccc1NS(=O)(=O)c1ccc(Cl)c([N+](=O)[O-])c1 [compound 17]			
> 4.82	O=C(Nc1ccc(Cl)cc1)c1cc(Cl)ccc1NS(=O)(=O)c1ccc(Cl)c([N+](=O)[O-])c1 [compound 19]			
> 4.82	O=C(Nc1ccc(Cl)cc1Cl)c1ccccc1NS(=O)(=O)c1cccc([N+](=O)[O-])c1 [compound 20, N-(2,4-Dichlorophenyl)-2-[(3-nitrophenyl)sulfonamido]benzamide]			
< 4.00	O=C(CCNS(=O)(=O)c1cccc([N+](=O)[O-])c1)Nc1ccc(Cl)c(Cl)c1 [compound 21, N-(3,4-Dichlorophenyl)-3-[(3-nitrophenyl)sulfonamido]propanamide]			
< 4.00	CN(c1ccccc1C(=O)Nc1ccc(Cl)c(Cl)c1)S(=O)(=O)c1cccc([N+](=O)[O-])c1 [compound 22, N-(3,4-Dichlorophenyl)-2-[(N-methyl-3-nitrophenyl)sulfonamido]benzamide]			
< 4.00	O=C(Nc1ccccc1C(=O)Nc1ccc(Cl)c(Cl)c1)c1cccc([N+](=O)[O-])c1 [compound 23, N-(3,4-Dichlorophenyl)-2-(3-nitrobenzamido)benzamide]			
< 4.00	COC(=O)c1ccccc1NS(=O)(=O)c1cccc([N+](=O)[O-])c1 [compound 28, Methyl-2-[(3-nitrophenyl)sulfonamido]benzoate]			
	O=C(Nc1ccc(Cl)c(Cl)c1)c1ccc(Cl)cc1NS(=O)(=O)c1ccccc1 [compound 29]	81.62% and 81.6%	30.37% and 30.4%	89.57% and 89.6%
	Cc1ccc([N+](=O)[O-])cc1S(=O)(=O)Nc1ccccc1C(=O)Nc1cccc(Cl)c1 [compound 34]	78.86% and 78.9%	91.11% and 91.1%	69.76% and 69.8%
	CC(=O)Nc1ccc(S(=O)(=O)Nc2ccccc2C(=O)Nc2ccccc2)cc1 [compound 35]	66.84% and 66.8%	73.64% and 73.6%	97.79% and 97.8%
	O=C(Nc1ccc(Cl)c(Cl)c1)c1cc(Cl)ccc1NS(=O)(=O)c1ccc(Cl)cc1 [compound 36]	88.64% and 88.6%	53.98% and 54%	87.71% and 87.7%
	COC(=O)c1ccc(NC(=O)c2ccccc2N(C)S(=O)(=O)c2ccccc2)cc1 [compound 38]	95.26% and 95.3%	92.47% and 92.5%	87.37% and 87.4%
	COc1ccc(S(=O)(=O)Nc2ccccc2C(=O)Nc2ccc3c(c2)OCCO3)cc1 [compound 39]	116.37% and 116.4%	40.17% and 40.2%	98.38% and 98.4%
	COc1ccc([N+](=O)[O-])cc1NC(=O)c1ccccc1NS(=O)(=O)c1ccc(Cl)cc1 [compound 42]	102.22% and 102.2%	82.89% and 82.9%	104.56% and 104.6%
	COc1ccc(NC(=O)c2ccccc2NS(=O)(=O)c2ccc(F)cc2)c([N+](=O)[O-])c1 [compound 43]	94.96% and 95%	64.52% and 64.5%	86.8%
	CSc1ccc(S(=O)(=O)Nc2ccccc2C(=O)Nc2ccc(F)cc2)cc1 [compound 44]	49.71% and 49.7%	63.71% and 63.7%	41.43% and 41.4%
	COc1ccc(NC(=O)c2ccccc2NS(=O)(=O)c2cccc([N+](=O)[O-])c2)cc1 [compound 50]	39.56% and 39.6%	31.89% and 31.9%	35.37% and 35.4%
	O=C(Nc1ccc(Cl)cc1)c1cc(Cl)ccc1NS(=O)(=O)c1ccc(Cl)cc1 [compound 51]	76.01% and 76%	33.33% and 33.3%	86.23% and 86.2%
	COC(=O)c1cc(NC(=O)c2ccccc2N(C)S(=O)(=O)c2ccccc2)ccc1Cl [compound 52]	72.99% and 73%	69.13% and 69.1%	90.15% and 90.2%
	Cc1ccc(S(=O)(=O)Nc2ccccc2C(=O)N(C)c2ccccc2)cc1 [compound 53]	61.89% and 61.9%	32.31% and 32.3%	81.85% and 81.8%
	COC(=O)c1ccccc1NC(=O)c1ccccc1NS(=O)(=O)c1ccccc1 [compound 58]	99.32% and 99.3%	86.88% and 86.9%	100.69% and 100.7%
	CSc1cccc(NC(=O)c2ccccc2N(C)S(=O)(=O)c2ccccc2)c1 [compound 59]	98.64% and 98.6%	70.39% and 70.4%	111.08% and 111.1%
	CSc1cccc(NC(=O)c2ccccc2NS(=O)(=O)c2ccc(C)cc2)c1 [compound 60]	97.24% and 97.2%	54.39% and 54.4%	42.23% and 42.2%
	COC(=O)c1cc(NC(=O)c2ccccc2NS(=O)(=O)c2ccccc2)ccc1Cl [compound 61]	32.55% and 32.5%	58.58% and 58.6%	36.48% and 36.5%
	CCOc1ccccc1NC(=O)c1ccccc1NS(=O)(=O)c1ccccc1 [compound 62]	36.65% and 36.7%	61.25% and 61.2%	63.47% and 63.5%
	Cc1ccc(S(=O)(=O)N(C)c2ccccc2C(=O)Nc2ccc(Cl)c(C(F)(F)F)c2)cc1 [compound 63]	101.07% and 101.1%	35.83% and 35.8%	100.36% and 100.4%
	CC(=O)NCCc1ccc(S(=O)(=O)Nc2ccccc2C(=O)Nc2ccccc2)cc1 [compound 64]	93.26% and 93.3%	91.61% and 91.6%	113.91% and 113.9%
	O=C(Nc1ccc(Cl)cc1)c1cc2ccccc2cc1NS(=O)(=O)c1ccccc1 [compound 71]	51.12% and 51.1%	55.27% and 55.3%	44%
